Experimental data reported in patent US9018173B2, “Materials and methods for suppressing inflammatory and neuropathic pain” (Indiana University Research and Technology Corp., priority 2010, dated 2015).
Residues, ends and D or L forms follow the SMILES beside them.

Tests used:
[1] = tested on: CaV2.2 cytosolic loop 1 (L1) and distal C-terminus (Ct-dis); assay: Surface plasmon resonance binding to CaV2.2 L1- and Ct-dis-GST fusion proteins; set-up: species or system rat; settings: peptide 1/3/5 μM
Text: In Vitro Protein Binding Assays. Using Vector NTI (v. 11; Invitrogen) software, primers were designed to amplify regions corresponding to the first cytoslic loop (L1; amino acids 356 to 483) and the distal end of the C-terminus (Ct-dis; amino acids 2133 to 2348) of rat CaV2.2 cDNA from P3 rat brain cDNA. The primers harbored restriction sites (Bam HI or Bgl II (5′) and Eco RI or Mfe I (3′)) to facilitate cloning into […]. In addition to the GST-tag, this vector contains the Glu tag, a sequence of six amino acids (EYMPME). Correctly-amplified PCR products and parent pGex-3x-Glu vector were digested with the indicated restriction enzymes, and then extracted following electrophoresis on an agarose gel. The extracted DNAs were quantified (Nanodrop 1000, Thermo Scientific), and ligations were performed using 6:1 and 3:1 insert to vector molar ratios. […]
Surface Plasmon resonance (SPR). Binding analyses between TAT CBD3 or TAT control peptides and CaV2.2 L1- or Ct-dis-GST fusion proteins was determined by surface plasmon resonance using a BIAcore3000 instrument (Biacore AB, Uppsala, Sweden). […]
Biochemistry and immunocytochemistry experiments. […] The binding between TAT CBD3 or TAT control peptides and CaV2.2 L1- or Ct-dis-GST fusion proteins was determined by surface plasmon resonance using a BIAcore3000 instrument (Biacore AB, Uppsala, Sweden).

[2] = tested on: anxiety-associated behavior; assay: Light-Dark Box test (LDBT); assay type: in vivo, C57BL6 mice; settings: for Light-Dark Box: Dark box latency to exit / Light-Dark Box: Light box entries: C57BL6 mice, 1 h after injection, 5 min test
Method: The light-dark box test and the elevated plus maze were used as measures of anxiety-associated behaviors. The tail suspension test was performed to evaluate despair- and depression-associated behavior. Anxiety-behavior testing Anxiety occurs when there is conflict between risk and reward. The Light-Dark Box test (LDBT) and the elevated plus maze (EPM) are accepted tests of anxiety-associated behavior that assess the conflict mice have against hiding in enclosed dark areas (i.e., dark box or closed arm) and their tendency to explore novel environments (i.e., white box or open arm). Lalonde, R. & Strazielle, C. […] J. Neurosci. Methods. 171, 48-52 (2008). These tests are also sensitive to anxiolytic drug treatments. Light-Dark Box test as a measure of anxiety-associated behavior. For the light-dark box test (LDBT), there were two adjoined light and dark compartments boxes with a 7 cm square opening to allow mice to move between them. The black box was covered (20 cm×40 cm×30 cm height) and the white box (20 cm×40 cm×30 cm height) was open and illuminated (40 W). Each mouse was placed into the white compartment and the white compartment was video recorded for later analyses using ANY-maze software (version 4.75, Stoelting, Wood Dale, Ill.) which is a video tracking system designed to automate testing in behavioral experiments. The main parameters were duration of time spent in the light box; the latency to enter the dark box; and the number of transitions between the light and dark box.

[3] = tested on: depression/despair-associated behavior; assay: Tail suspension test (TST); assay type: in vivo, C57BL6 mice; settings: for Tail Suspension Test: Active: C57BL6 mice, 1 h after injection, 5 min test
Method: The light-dark box test and the elevated plus maze were used as measures of anxiety-associated behaviors. The tail suspension test was performed to evaluate despair- and depression-associated behavior.
Depression/Despair-behavior testing. Since rodents such as mice and rats display immobile postures when placed in inescapable stressful situations, immobility behavior in the tail suspension test (TST) or forced swim test (FST) is used as a measure of “depression” or “despair”-associated behavior. Furthermore, administering antidepressant treatments prior to testing reduces immobility behavior. Therefore TST and FST are often used to screen novel drugs for depressant or anti-depressant properties.
Tail suspension test as a measure of depression-associated behavior. Immediately following the EPM test, the TST was conducted according to standard procedure between 8:00 AM and 2:00 PM. Cryan, J. F., Mombereau, C., & Vassout, A. The tail suspension test as a model for assessing antidepressant activity: review of pharmacological and genetic studies in mice. Neurosci. Biobehay. Rev. 29, 571-625 (2005). Briefly, each mouse was suspended by the tail at a height of 40 cm by taping the rail to a horizontal bar so that the tail is vertical to the bar. Behavior was video recorded for 5 min and later analyzed by an experimenter, whom was blind to the treatments. […] If a mouse climbed its tail the mouse was gently pulled back down and the trial continued. Mice that climbed their tails for more than 20% of the trial (i.e. >60 seconds) were eliminated from the final analysis. Duration and frequency of immobility was the main parameters measured. Mice injected with the scrambled control peptide were immobile approximately 26% of the TST duration which is equivalent to baseline immobility durations (approximately 27%) observed in C57B16 mice in another recent study.

Compound | binding to immobilized L1 and Ct-dis proteins (surface plasmon resonance) [1] | LDBT number of transitions between the light and dark box ([2]; 1 mg/kg, compared to TAT-Scramble) | Light-Dark Box: Dark box latency to exit ([2]; 0.1 mg/kg i.p.) [s] | Light-Dark Box: Light box entries ([2]; 0.1 mg/kg i.p.) | Light-Dark Box: Dark box latency to exit ([2]; 1 mg/kg i.p.) [s] | Light-Dark Box: Light box entries ([2]; 1 mg/kg i.p.) | Light-Dark Box: Dark box latency to exit ([2]; 10 mg/kg i.p.) [s] | Light-Dark Box: Light box entries ([2]; 10 mg/kg i.p.) | Tail Suspension Test: Active ([3]; 0.1 mg/kg i.p.) [s] | Tail Suspension Test: Active ([3]; 1 mg/kg i.p.) [s] | Tail Suspension Test: Active ([3]; 10 mg/kg i.p.) [s] | TST time spent immobile and frequency of immobile episodes ([3]; any dose, compared to TAT-Scramble)
ARSRLAELRGVPRGL (CBD3) | bound to immobilized L1 and Ct-dis proteins |  |  |  |  |  |  |  |  |  |  | 
CC(C)C[C@H](NC(=O)CNC(=O)[C@H](CCCNC(=N)N)NC(=O)[C@@H]1CCCN1C(=O)[C@@H](NC(=O)CNC(=O)[C@H](CCCNC(=N)N)NC(=O)[C@H](CC(C)C)NC(=O)[C@H](CCC(=O)O)NC(=O)[C@H](C)NC(=O)[C@H](CC(C)C)NC(=O)[C@H](CCCNC(=N)N)NC(=O)[C@H](CO)NC(=O)[C@H](CCCNC(=N)N)NC(=O)[C@H](C)NC(=O)[C@H](CCCNC(=N)N)NC(=O)[C@H](CCCNC(=N)N)NC(=O)[C@H](CCCNC(=N)N)NC(=O)[C@H](CCC(N)=O)NC(=O)[C@H](CCCNC(=N)N)NC(=O)[C@H](CCCNC(=N)N)NC(=O)[C@H](CCCCN)NC(=O)[C@H](CCCCN)NC(=O)[C@H](CCCNC(=N)N)NC(=O)CNC(=O)[C@@H](N)Cc1ccc(O)cc1)C(C)C)C(=O)O [TAT-CBD3] (H-YGRKKRRQRRRARSRLAELRGVPRGL-OH; N-terminus and C-terminus assumed) |  | increased | 66.0 ± 17.3 | 10.6 ± 1.2 | 36.9 ± 5.8 | 13.5 ± 1.1 | 49.5 ± 9.6 | 11.5 ± 1.2 | 238.1 ± 13.6 | 235.2 ± 13.0 | 239.7 ± 10.9 | neither time spent immobile, nor frequencies of immobile episodes were altered
